Measured values reported in US20240368120A1 (Terns Pharmaceuticals, Inc., priority 2023, published 2024).
pEC50: −log10 of the molar value.

Target: T1, human GLP-1R receptor (Homo sapiens, UniProt P43220)
T1 construct: expressed in transfected cells
Experiment: GLP-1R low expression cell assay (cAMP TR-FRET, CHO-K1_hGLP-1Rlow_clone10 cells)
Type: cell-based
Settings: for pEC50: cAMP TR-FRET, 30 min at 25° C.; for Emax: maximum activation relative to control GLP-1 peptide agonist
Procedure: Stable cell lines expressing high and low GLP-1R surface expression were generated in CHO-K1 cells transfected (Fugene 6) with a puromycin selectable DNA plasmid encoding human GLP-1R receptor (accession number: NM_002062.5) under control of an EF1A promoter. Transfected cells were seeded into 24-well plates (9,000 cells/well) containing complete medium and incubated in a humidified incubator at 37° C. with 5% carbon dioxide. After overnight incubation, medium was replaced with complete medium supplemented with puromycin (6 μg/mL) and refreshed every 2-3 days to select for stably transfected cells. Individual pools of selected cells were expanded prior to analysis for responsiveness to GLP-1 control peptide using a TR-FRET assay to detect cAMP (LANCE Ultra CAMP Assay, Perkin Elmer). Briefly, cells were collected in Versene solution, plated in 384-well plates (1,000 cells/well) and combined with serially diluted GLP-IR control peptide (10 nL) using an acoustic dispenser (ECHO). Plates were incubated for 30 minutes at 25° C. prior to the addition of EU-CAMP tracer (5 μL) and Ulight-anti-CAMP (5 μL) reagents to each well, followed by 15 minutes incubation at 25° C. TR-FRET signal was detected using an En Vision Multimode Plate Reader (excitation=320 nm; emission=615 and 655 nm). Dose-response curves were used to generate EC50 values as a measure of responsiveness to the GLP-IR control peptide. Selected cell lines were monitored for responsiveness over multiple passages to ensure stability. […] Briefly, GLP-IR expression was analyzed by flow cytometry using a fluorescein-labeled Exendin-4 peptide fluorescent probe (FLEX). Cells were harvested in Versene solution and washed 3-times with PBS+0.5% BSA before incubation with FLEX reagent (10 μM) for 2 hours at room temperature. After incubation, cells were washed 3-times in PBS+0.5% BSA before final resuspension in PBS prior to analysis by flow cytometry to measure FLEX mean fluorescence intensity (MFI) as a measure of GLP-IR expression on the cell surface.
For compound testing in the CHO-K1_hGLP-IRlow_clone10 cell line, cells were seeded in 384-well plates (1,000 cells/well). Test compounds were serially diluted in DMSO (10-point, 3-fold dilution), added to wells using an ECHO dispenser (10 nL/well) and plates were centrifuged for 1 min and agitated for 2 min at room temperature prior to 30-minute incubation at 25° C. After incubation, Eu-CAMP (5 μL) and Ulight-anti-cAMP (5 μL) reagents were added to each well, followed by centrifugation for 1 minute, agitation for 2 minutes at room temperature, and final incubation of the plates at 25° C. for 15 minutes. Plates were read using an EnVision microplate reader (excitation=320 nm; emission=615 and 655 nm). Dose-response curves were generated from duplicate wells based on percent activation calculated relative to a control GLP-1 peptide agonist that was run in parallel. EC50 values were determined by fitting percent activation as a function of compound concentration using the Hill equation (XLfit).
The compounds tested were compound samples prepared according to the General Procedures described in the Examples section.

T1 sequence (P43220 24-463): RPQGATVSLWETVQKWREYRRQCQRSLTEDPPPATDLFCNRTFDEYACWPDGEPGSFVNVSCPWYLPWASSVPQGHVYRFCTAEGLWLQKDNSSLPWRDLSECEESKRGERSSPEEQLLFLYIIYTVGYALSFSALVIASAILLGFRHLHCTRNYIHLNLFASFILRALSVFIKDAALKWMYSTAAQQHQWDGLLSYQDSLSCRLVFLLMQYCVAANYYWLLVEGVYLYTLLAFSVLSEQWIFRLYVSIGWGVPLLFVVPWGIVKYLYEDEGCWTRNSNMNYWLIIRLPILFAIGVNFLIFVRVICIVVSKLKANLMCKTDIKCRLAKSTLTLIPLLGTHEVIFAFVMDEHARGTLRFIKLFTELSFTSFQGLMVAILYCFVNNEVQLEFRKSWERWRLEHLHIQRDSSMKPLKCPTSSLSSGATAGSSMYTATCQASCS

Row | Structure (SMILES) | pEC50 | Emax [%]
1 | CCOc1cc(C(=O)O)cc2c1nc(CN1CCC(c3cccc4c3OC[C@H](c3ccc(Cl)cc3F)O4)CC1)n2C [Compound 270, (S)-2-((4-(2-(4-Chloro-2-fluorophenyl)-2,3-dihydrobenzo[b][1,4]dioxin-5-yl)piperidin-1-yl)methyl)-4-ethoxy-1-methyl-1H-benzo[d]imidazole-6-carboxylic acid] | 7.00 to 8.00 | > 85
2 | Cn1c(CN2CCC(c3cccc(OCc4ccc(Cl)cc4F)n3)CC2)nc2c(OC(F)F)c(C(=O)O)ccc21 [Compound 220, 2-((4-(6-((4-Chloro-2-fluorobenzyl)oxy)pyridin-2-yl)piperidin-1-yl)methyl)-4-(difluoromethoxy)-1-methyl-1H-benzo[d]imidazole-5-carboxylic acid] | < 6.00 | > 85
3 | CCOc1cc(C(=O)O)cc2c1nc(CN1CCC(Oc3cccc(COc4ccc(C#N)cc4F)n3)CC1)n2C [Compound 290, 2-((4-((6-((4-Cyano-2-fluorophenoxy)methyl)pyridin-2-yl)oxy)piperidin-1-yl)methyl)-4-ethoxy-1-methyl-1H-benzo[d]imidazole-6-carboxylic acid] | > 8.00 | > 85
4 | COc1cc(C(=O)O)cc2c1nc(N(C)[C@H]1CC[C@H](c3cccc(OCc4ccc(Cl)cc4F)n3)CC1)n2C [Compound 363, 2-(((1r,4r)-4-(6-((4-Chloro-2-fluorobenzyl)oxy)pyridin-2-yl)cyclohexyl)(methyl)amino)-4-methoxy-1-methyl-1H-benzo[d]imidazole-6-carboxylic acid] | > 8.00 | > 85
5 | CCOc1cc(C(=O)O)cc2c1nc(CN1CCC(Oc3cccc(COc4ccc(Cl)cc4F)n3)CC1)n2C [Compound 256, 2-((4-((6-((4-chloro-2-fluorophenoxy)methyl)pyridin-2-yl)oxy)piperidin-1-yl)methyl)-4-ethoxy-1-methyl-1H-benzo[d]imidazole-6-carboxylic acid] | > 8.00 | > 85
6 | CCOc1cc(C(=O)O)cc2c1nc(CN1CCC(c3cccc(OCc4ccc(Cl)cc4F)n3)CC1)n2C [Compound 358, 2-((4-(6-((4-Chloro-2-fluorobenzyl)oxy)pyridin-2-yl)piperidin-1-yl)methyl)-4-ethoxy-1-methyl-1H-benzo[d]imidazole-6-carboxylic acid] | – | > 85
7 | Cn1c(CN2CCC(c3cccc(OCc4ccc(C#N)cc4F)n3)CC2)nc2c(N3CCOCC3)cc(C(=O)O)cc21 [Compound 112, 2-((4-(6-((4-cyano-2-fluorobenzyl)oxy)pyridin-2-yl)piperidin-1-yl)methyl)-1-methyl-4-morpholino-1H-benzo[d]imidazole-6-carboxylic acid] | 6.00 to 7.00 | > 85
8 | Cn1c(CN2CCC(c3ncc(F)c(OCc4ccc(Cl)cc4F)n3)CC2)nc2c(OC(F)F)cc(C(=O)O)cc21 [Compound 356, 2-((4-(4-((4-Chloro-2-fluorobenzyl)oxy)-5-fluoropyrimidin-2-yl)piperidin-1-yl)methyl)-4-(difluoromethoxy)-1-methyl-1H-benzo[d]imidazole-6-carboxylic acid] | 7.00 to 8.00 | > 85
9 | COc1cc(C(=O)O)cc2c1nc(CN1CCC(c3cccc4c3OC[C@H](c3ccc(C#N)cc3F)O4)CC1)n2C [Compound 274, (S)-2-((4-(2-(4-Cyano-2-fluorophenyl)-2,3-dihydrobenzo[b][1,4]dioxin-5-yl)piperidin-1-yl)methyl)-4-methoxy-1-methyl-1H-benzo[d]imidazole-6-carboxylic acid] | < 6.00 | < 25
10 | Cn1c(Cc2ccc(-c3cccc(OCc4ccc(C#N)cc4F)n3)cc2F)nc2c(OC(F)F)cc(C(=O)O)cc21 [Compound 120, 2-(4-(6-((4-Cyano-2-fluorobenzyl)oxy)pyridin-2-yl)-2-fluorobenzyl)-4-(difluoromethoxy)-1-methyl-1H-benzo[d]imidazole-6-carboxylic acid] | > 8.00 | > 85
11 | Cn1c(CN2CCC(c3cccc(OCc4ccc(Cl)cc4F)n3)CC2)nc2c(OC(F)F)cc(-c3nsc(=O)[nH]3)cc21 [Compound 370, 3-(2-((4-(6-((4-Chloro-2-fluorobenzyl)oxy)pyridin-2-yl)piperidin-1-yl)methyl)-4-(difluoromethoxy)-1-methyl-1H-benzo[d]imidazol-6-yl)-1,2,4-thiadiazol-5 (4H)-one] | 6.00 to 7.00 | > 85
12 | CC(C)Oc1cc(C(=O)O)cc2c1nc(CN1CCC(c3cccc4c3O[C@@](C)(c3ccc(Cl)cn3)O4)CC1)n2C [Compound 84, (S)-2-((4-(2-(5-Chloropyridin-2-yl)-2-methylbenzo[d][1,3]dioxol-4-yl)piperidin-1-yl)methyl)-4-isopropoxy-1-methyl-1H-benzo[d]imidazole-6-carboxylic acid] | > 8.00 | > 85
13 | CC(F)(F)c1cc(C(=O)O)cc2c1nc(CN1CCC(c3cccc4c3O[C@@](C)(c3ccc(Cl)cn3)O4)CC1)n2C[C@@H]1CCO1 [Compound 57, 2-((4-((S)-2-(5-Chloropyridin-2-yl)-2-methylbenzo[d][1,3]dioxol-4-yl)piperidin-1-yl)methyl)-4-(1,1-difluoroethyl)-1-(((S)-oxetan-2-yl)methyl)-1H-benzo[d]imidazole-6-carboxylic acid] | > 8.00 | –
14 | Cn1c(CN2CCC(c3cccc(OCc4ccc(C#N)cc4F)n3)CC2)nc2c(N)cc(C(=O)O)cc21 [Compound 115, 4-amino-2-((4-(6-((4-cyano-2-fluorobenzyl)oxy)pyridin-2-yl)piperidin-1-yl)methyl)-1-methyl-1H-benzo[d]imidazole-6-carboxylic acid] | > 8.00 | > 85
15 | Cn1c(CN2CCC(c3ccc4c(c3)N(Cc3ccc(Cl)cc3F)C(=O)CO4)CC2)nc2c(OC(F)F)cc(C(=O)O)cc21 [Compound 193, 2-((4-(4-(4-chloro-2-fluorobenzyl)-3-oxo-3,4-dihydro-2H-benzo[b][1,4]oxazin-6-yl)piperidin-1-yl)methyl)-4-(difluoromethoxy)-1-methyl-1H-benzo[d]imidazole-6-carboxylic acid] | < 6.00 | < 25
16 | COc1cc(C(=O)O)cc2c1nc([C@@H](C)N1CCC(c3cccc(OCc4ccc(C#N)cc4F)n3)CC1)n2C[C@@H]1CCO1 [Compound 94, 2-((R)-1-(4-(6-((4-Cyano-2-fluorobenzyl)oxy)pyridin-2-yl)piperidin-1-yl)ethyl)-4-methoxy-1-(((S)-oxetan-2-yl)methyl)-1H-benzo[d]imidazole-6-carboxylic acid] | < 6.00 | > 85
17 | Cn1c(CN2CCC(Oc3cccc(Cc4ccc(C#N)cc4F)n3)CC2)nc2c(OC(F)F)cc(C(=O)O)cc21 [Compound 157, 2-((4-((6-(4-Cyano-2-fluorobenzyl)pyridin-2-yl)oxy)piperidin-1-yl)methyl)-4-(difluoromethoxy)-1-methyl-1H-benzo[d]imidazole-6-carboxylic acid] | 6.00 to 7.00 | > 85
18 | COc1c(C(=O)O)ccc2c1nc(CN1CCC(c3cccc(OCc4ccc(Cl)cc4F)n3)CC1)n2C [Compound 187, 2-((4-(6-((4-Chloro-2-fluorobenzyl)oxy)pyridin-2-yl)piperidin-1-yl)methyl)-4-methoxy-1-methyl-1H-benzo[d]imidazole-5-carboxylic acid] | < 6.00 | < 25
19 | Cn1c(CN2CCC(c3cccc(OCc4ccc(Cl)cc4F)n3)CC2)nc2c(OC(F)F)cc(-c3cc(O)no3)cc21 [Compound 316, 5-(2-((4-(6-((4-Chloro-2-fluorobenzyl)oxy)pyridin-2-yl)piperidin-1-yl)methyl)-4-(difluoromethoxy)-1-methyl-1H-benzo[d]imidazol-6-yl) isoxazol-3-ol] | 6.00 to 7.00 | 50 to 85
20 | Cn1c(CN2CCC(c3cccc(OCc4ccc(Cl)cn4)n3)CC2)nc2c(OC(F)F)cc(C(=O)O)cc21 [Compound 247, 2-((4-(6-((5-Chloropyridin-2-yl)methoxy)pyridin-2-yl)piperidin-1-yl)methyl)-4-(difluoromethoxy)-1-methyl-1H-benzo[d]imidazole-6-carboxylic acid] | 6.00 to 7.00 | > 85
